The values that follow come from patent EP4775208A1, “USE OF PRMT5 INHIBITOR IN TREATMENT OF TUMORS OR CANCERS” (Apeiron Therapeutics (Hong Kong) Ltd., priority 2023, dated 2025).

Like-named read-outs stand apart in the source and are kept apart here.

One series has as its system SU-DHL-4. Kind of series: Mini cell panel: inhibition of proliferation of SU-DHL-4 cells. Type of series: cell-based. From the text:
(§1) Test 9: Mini Cell Panel: Assay for Inhibitory Activity of Compounds against Proliferation of 20 Tumor Cell Lines
(§2) Materials and Cells: Fifteen MTAP(-/-) cell lines and five MTAP wild-type cell lines were purchased from ATCC (USA). Cell culture media, fetal bovine serum (FBS), and penicillin-streptomycin were purchased from Thermo Fisher Scientific (USA). 384-well plates were purchased from PerkinElmer (USA). The CellTiter-Glo assay kit was purchased from Promega (USA). Paclitaxel was used as the control compound.

Another series deals with U87MG. As to the kind of experiment: Mini cell panel: inhibition of proliferation of U87MG cells. The format is cell-based. The note with it: MTAP (-/-).
Excerpt: as §1, §2

The test system of series [1] is five MTAP wild-type cell lines. As to the kind of experiment: Mini cell panel: summary over the MTAP wild-type cell lines. Type of series: cell-based.
Excerpt: as §1, §2

The next series relates to SK-MEL-5. As to the kind of experiment: Mini cell panel: inhibition of proliferation of SK-MEL-5 cells. The format is cell-based. The settings on record: Homo sapiens, MTAP (-/-).
Excerpt: as §1, §2

The subject of series [2] is HCT-116 MTAP wild-type cells. Kind of series: Inhibition of proliferation of HCT-116 MTAP wild-type cells (Cell-Titer Glo). The format is cell-based. The settings on record: 8 days. Summed up: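 MTAP wild-type HCT-116 cells were seeded, cultured overnight and then exposed to compound from 10,000 nM down in a 10-point, 3-fold series (0.1% DMSO). Plates were incubated 8 days at 37°C, 5% CO2. Proliferation was read by Cell-Titer Glo viability luminescence.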

Series [3] is described as follows: Mouse pharmacokinetic experiment (IV and PO, plasma). The format is in vivo, ICR male mice. The note with it: ICR mice; for bioavailability: male, mouse, read-out: Bioavailability F (%); for bioavailability / AUClast: plasma. The protocol: II. Mouse Pharmacokinetic Experiment
The compounds used in this experiment are specific embodiments of the present invention, with reference to compound AMG473 as an example from Amgen's patent WO 2022/169948A1, identified as example 473.
ICR male mice, N=3/group; sourced from Zhejiang Vital River Laboratory Animal Technology Co., Ltd.
3. Drug Preparation and Administration
Single oral (PO) administration to ICR mice: Compounds were dissolved in dimethyl sulfoxide, added to polyethylene glycol 400 and sterile water, and then adjusted to a clear solution with a small amount of 1 mol/L hydrochloric acid. After overnight fasting, the mice were orally gavaged with a dose of 10 mg/kg. Single intravenous (IV) administration to ICR mice: Compounds were dissolved in dimethyl sulfoxide, added to polyethylene glycol 400 and sterile water, and then adjusted to a clear solution with a small amount of 1 mol/L hydrochloric acid. After overnight fasting, the mice received tail vein injections with a dose of 3 mg/kg.
Approximately 30 µL/time point blood samples were collected via the tail vein. Potassium ethylenediaminetetraacetate was used as an anticoagulant, and samples were centrifuged at 4000 g/min for 5 minutes at 4°C within 1 hour. Blood sampling time points were 0.0833 (IV), 0.25, 0.5, 1, 2, 4, 6, 8, 24 hours. Samples were stored in a -20°C freezer.
Plasma samples (30µL, 10µL sample + 20µL blank plasma) were mixed with 200µL ice-cold acetonitrile containing internal standards. After vortexing for 30 seconds, samples were centrifuged at 4000g/min for 20 minutes. One hundred microliters of the supernatant were transferred to a 96-well plate, followed by the addition of 200µL ultrapure water. After vortexing for 30 seconds, 5µL or 10µL were injected into LC-MS/MS for analysis. Table 7: Pharmacokinetic Data

The test system of the next series is CFPAC-1. Kind of series: Mini cell panel: inhibition of proliferation of CFPAC-1 cells. The format is cell-based.
Excerpt: as §1, §2

A further series has as its system Ht 1080. As to the kind of experiment: Mini cell panel: inhibition of proliferation of Ht 1080 cells. Type of series: cell-based.
Excerpt: as §1
Materials and Cells: Fifteen MTAP(-/-) cell lines and five MTAP wild-type cell lines were purchased from ATCC (USA). Cell culture media, fetal bovine serum (FBS), and penicillin-streptomycin were purchased from Thermo Fisher Scientific (USA). 384-well plates were purchased from PerkinElmer (USA). The CellTiter-Glo assay kit was purchased from Promega (USA). […]

The next series concerns A549. As to the kind of experiment: Mini cell panel: inhibition of proliferation of A549 cells. Type of series: cell-based.
Excerpt: as §1, §2

[4] abbreviates: Homo sapiens, SU-DHL-4, MTAP Wild type.
Setting [5] is: read-out: median IC50, MTAP wild-type cells.
Setting [6] is: span over the cell lines, read-out: IC50 values (range) against MTAP wild-type cells.
[7] abbreviates: Homo sapiens, CFPAC-1, MTAP Wild type.
Setting [8] is: Homo sapiens, HT-1080, MTAP (-/-).

Broadly, the IC50 is the concentration that inhibits the measured activity by half. With `CN(C(=O)c1cc2c(cn1)nc(N)c1cncn12)[C@@H]1COc2cc(C(F)(F)F)ccc21` [Example 4, (S)-4-amino-N-methy 1-N-(6-(trifluoromethy 1)-2,3-dihydrobenzofuran-3-yl)imidazo[1,5-a]pyrido[3,4-e]pyrazine-8-carboxamide], the IC50 in the series on SU-DHL-4 (setting [4]) is 1.26 µM; in the series with U87MG (Homo sapiens, U-87 MG), 0.148 µM; in [1] (setting [5]), 1.71 µM; in series [1] (setting [6]), 0.407 to 6.6 µM; in the series on SK-MEL-5 it was above 1 µM; in series [2] (Homo sapiens, HCT-116, 192 h), 1710 nM. For the same compound, the IC50 in the series with CFPAC-1 (setting [7]) amounted to 0.407 µM; with Ht 1080 (setting [8]) it was 0.0024 µM; with A549 (Homo sapiens, A549, MTAP (-/-)), 0.0202 µM. In addition, the bioavailability in series [3] (PO(10mg/kg) vs IV(3mg/kg)) was determined as 77%.

With `[2H]C([2H])([2H])N(C(=O)c1ccc2nc(N)c3cncn3c2c1)[C@@H]1COc2cc(C(F)(F)F)ccc21` [Example 16, (S)-4-amino-N-(methyl-d3)-N-(6-(trifluoromethyl)-2,3-dihydrobenzofuran-3-yl)imidaz o[1,5-a]quinoxaline-8-carboxamide], inhibition in series [2] (Homo sapiens, HCT-116, 192 h) was half-maximal at 1080 nM (IC50). The bioavailability in series [3] (PO(10mg/kg) vs IV(3mg/kg)) is 131%.

With `[2H]C([2H])([2H])N(C(=O)c1cc2c(cc1F)nc(N)c1cncn12)[C@@H]1COc2cc(C(F)(F)F)ccc21` [Example 41, (S)-4-amino-7-fluoro-N-(methyl-d3)-N-(6-(trifluoromethyl)-2,3-di hydrobenzofuran-3-yl)imidazo[1,5-a]quinox aline-8-carboxamide], the half-maximal inhibitory concentration (IC50) in [2] (Homo sapiens, HCT-116, 192 h) came out at 1140 nM. The bioavailability in series [3] (PO(10mg/kg) vs IV(3mg/kg)) turned out to be 257%.

As for `CN(C(=O)c1ccc2nc(N)c3cncn3c2c1)[C@@H]1COc2cc(C(F)(F)F)ccc21` [Example 107, (S)-4-amino-N-methy 1-N-(6-(trifluoromethy 1)-2,3-dihydrobenzofuran-3-yl)imidazo[1,5-a]quinoxaline-8-carboxamide], the 50% inhibitory concentration (IC50) in the series with SU-DHL-4 (setting [4]) was 3.1 µM; in the series with U87MG (Homo sapiens, U-87 MG) it was 0.327 µM; in [1] (setting [5]), 3.33 µM; in series [1] (setting [6]), at least 0.781 µM; with SK-MEL-5, above 1 µM; in [2] (Homo sapiens, HCT-116, 192 h) it was 1730 nM. The 50% inhibitory concentration (IC50) in the series on CFPAC-1 (setting [7]) was 0.781 µM; in the series with Ht 1080 (setting [8]), 0.0104 µM; in the series with A549 (Homo sapiens, A549, MTAP (-/-)) it was 0.0691 µM. In [3] (PO(10mg/kg) vs IV(3mg/kg)), the bioavailability was 119%.

Regarding “(S)-4-amino-7-fluoro-N-methyl-N-(6-(triflu oromethyl)-2,3-dihydr obenzofuran-3-yl)imi dazo[1,5-a]quinoxalin e-8-carboxamide [Example 29]”, the half-inhibitory concentration (IC50) was above 10 µM in the series on SU-DHL-4 (MTAP Wild type); 1.04 µM in the series with U87MG; 3.3 µM in [1] (setting [5]); 935 nM in series [2]; 1.06 µM in the series with CFPAC-1 (MTAP Wild type); 0.0367 µM in the series with Ht 1080 (MTAP (-/-)). Moreover, the IC50 with A549 (MTAP (-/-)) was 0.0085 µM. Besides, the “T1/2” value in [3] (IV(3mg/kg)) came out at 4.38 h; in [3] (PO(10mg/kg)), 4.16 h. For the same compound, the “AUClast” value in series [3] (IV(3mg/kg)) was found to be 12925 ng·h/mL; in series [3] (PO(10mg/kg)), 43906 ng·h/mL. For the same compound, the “Bioavailability F (%)” value in [3] (PO(10mg/kg) vs IV(3mg/kg)) came to 102%.
